Source: article PMC4823750, “Enoyl-CoA hydratase mediates polyhydroxyalkanoate mobilization in Haloferax mediterranei” (Scientific Reports, 2016)

What was measured:
[1] = molecular target: T1, PhaJ1 (PhaJ1-His6; HFX_5217) (Haloferax mediterranei, UniProt A0ACN4YM66); assay: HPLC of hydration product; format: biochemical; settings: 0.25 mM crotonyl-CoA; 2 M KCl, 100 mM Tris-HCl pH 7.5, 5 mM MgCl2, 45 °C, 30 min
T1 construct: gene maoC; N-terminal His6 tag kept; 219 residues (native); expressed from pTA05-phaJ1 in Haloferax volcanii H1424, Ni-agarose purified

[2] = molecular target: T1, PhaJ1 (PhaJ1-His6; HFX_5217); assay: HPLC of dehydration product; format: biochemical; settings: 0.25 mM racemic 3HB-CoA; 2 M KCl, 100 mM Tris-HCl pH 7.5, 5 mM MgCl2, 45 °C, 30 min

T1 sequence (A0ACN4YM66 entry or part of it): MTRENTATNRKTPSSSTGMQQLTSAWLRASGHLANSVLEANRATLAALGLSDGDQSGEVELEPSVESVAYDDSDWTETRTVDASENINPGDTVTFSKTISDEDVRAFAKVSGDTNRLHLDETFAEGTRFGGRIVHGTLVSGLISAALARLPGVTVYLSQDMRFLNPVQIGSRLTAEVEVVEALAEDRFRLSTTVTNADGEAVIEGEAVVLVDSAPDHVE

Compound	HPLC of hydration product [1]	HPLC of dehydration product [2]
C/C=C/C(=O)SCCNC(=O)CCNC(=O)[C@H](O)C(C)(C)COP(=O)(O)OP(=O)(O)OC[C@H]1O[C@@H](n2cnc3c(N)ncnc32)[C@H](O)[C@@H]1OP(=O)(O)O [crotonyl-CoA]	major crotonyl-CoA was converted into 3HB-CoA by PhaJ1	–
CC(O)CC(=O)SCCNC(=O)CCNC(=O)[C@H](O)C(C)(C)COP(=O)(O)OP(=O)(O)OC[C@H]1O[C@@H](n2cnc3c(N)ncnc32)[C@H](O)[C@@H]1OP(=O)(O)O (some centres unmarked) [3-hydroxybutyryl-CoA]	–	minor 3HB-CoA was converted into crotonyl-CoA by PhaJ1
